Results published in patent US20260374739A1, “SMALL MOLECULAR WEIGHT CHEMICAL COMPOUND TO ANTAGONIZE EPH-EPHRIN TETRAMERIZATION AND INHIBIT BIDIRECTIONAL SIGNALING” (THE BOARD OF REGENTS OF THE UNIVERSITY OF TEXAS SYSTEM, priority 2022, published 2026).
Values joined by “and” are separate entries in the source; they are usually repeats but may differ in a detail not shown here. Equal values may be shown once. Read-outs that look alike come from different tables or passages of the source.

How the values were obtained:
EphB2-EphrinB2 = molecular target: T1, EphB2-EphrinB2 (Mus musculus, UniProt P54763); assay: EphrinB2 co-immunoprecipitation with EphB2 in mouse brain after dosing; format: in vivo; details: IP 10 mg/kg every 12 hr, 4 days
T1 construct: Whole brain protein lysates were then prepared in a Dounce homogenizer; from tissue; host or cells: brain of wild-type mice
T1 sequence (P54763 19-986): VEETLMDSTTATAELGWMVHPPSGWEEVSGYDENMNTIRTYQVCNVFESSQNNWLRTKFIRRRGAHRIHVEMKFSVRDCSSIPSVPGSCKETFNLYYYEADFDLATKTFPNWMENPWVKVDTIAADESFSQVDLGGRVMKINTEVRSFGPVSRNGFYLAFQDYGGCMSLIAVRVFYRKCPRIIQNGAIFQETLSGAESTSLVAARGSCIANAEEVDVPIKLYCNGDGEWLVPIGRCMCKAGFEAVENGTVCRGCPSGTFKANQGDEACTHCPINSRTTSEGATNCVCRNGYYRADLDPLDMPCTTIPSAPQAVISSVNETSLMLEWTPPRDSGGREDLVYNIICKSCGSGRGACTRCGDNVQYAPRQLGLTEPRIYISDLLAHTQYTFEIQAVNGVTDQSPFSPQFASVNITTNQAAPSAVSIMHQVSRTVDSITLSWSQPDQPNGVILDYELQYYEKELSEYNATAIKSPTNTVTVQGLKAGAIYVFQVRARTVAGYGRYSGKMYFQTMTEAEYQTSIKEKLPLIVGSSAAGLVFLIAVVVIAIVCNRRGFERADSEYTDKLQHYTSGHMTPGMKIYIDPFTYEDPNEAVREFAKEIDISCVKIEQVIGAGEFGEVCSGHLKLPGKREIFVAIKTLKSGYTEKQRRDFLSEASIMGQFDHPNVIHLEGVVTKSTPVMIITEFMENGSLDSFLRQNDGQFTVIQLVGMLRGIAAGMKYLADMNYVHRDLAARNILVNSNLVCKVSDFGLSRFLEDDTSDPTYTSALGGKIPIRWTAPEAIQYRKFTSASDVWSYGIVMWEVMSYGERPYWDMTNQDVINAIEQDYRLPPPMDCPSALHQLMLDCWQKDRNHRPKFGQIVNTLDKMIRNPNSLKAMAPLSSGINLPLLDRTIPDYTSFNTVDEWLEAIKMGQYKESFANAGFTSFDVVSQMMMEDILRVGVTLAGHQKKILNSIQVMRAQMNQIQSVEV
Method: (§1) Wild-type mice aged 10-12 weeks were IP injected every 12 hr for four days with vehicle (PBS) or 10 mg/kg of 2×·HCl salt forms of A20 (in PBS), A20-I (in PBS), or 3511-I, in 94% PBS/6% DMSO) for a total of 8 injections. Exactly 2 hr after final injection of A20 chemical, brains were dissected and frozen at −80 °C. Whole brain protein lysates were then prepared in a Dounce homogenizer using 5 ml PLC lysis buffer, and 1 ml of lysate was used for immunoprecipitation (IP) with 1 μg goat anti-EphB2 antibody, followed by immunoblot (IB) analysis with goat anti-EphB2, rabbit anti-phosphoEphB1/B2 (pEphB1/B2), and mouse anti-EphrinB2 antibodies using appropriate HRP conjugated secondary antibodies and chemiluminescent detection methods.
(§2) FIG. 79A depicts an illustrative immunoblot showing expression of EphB2, phospho-EphB1/B2, and EphrinB2 (co-IP) in the mouse brains. […] The level of co-immunoprecipitated EphrinB2 from the brains of A20 chemical injected animals was generally lower as indicated by fainter bands. FIGS. 79B and 79C show quantification of band intensities (number of photons detected) to obtain ratios of pEphB/EphB2 as a measure of EphB2 receptor activation levels (FIG. 79B) and ratios of EphrinB2/EphB2 as a measure of how much EphrinB2 is co-immunoprecipitated with the EphB2 receptor (FIG. 79C).

EphB2 = EphB2 phosphorylation in mouse brain after dosing (immunoprecipitation/immunoblot); format: in vivo; details: 4 days
Method: as §1, §2
Whole brain protein lysates were prepared from wild-type mice either oral dosed (PO) or injected (IP) for 4 days with vehicle (PBS) or 20 mg/kg of 2×·HCl salt drugs of A20 or A20-I every 12 hr, with last ([…]) dose staggered such that brain dissections happened 2 hr after final drug dosing. EphB2 was immunoprecipitated from 1 ml of protein lysate using 1 μg of goat anti-EphB2 antibodies and then precipitated proteins immunoblotted with goat anti-EphB2, rabbit anti-pTyr1000, and mouse 4G10 antibodies using appropriate HRP conjugated secondary antibodies and chemiluminescent detection methods.
The pTry1000 and 4G10 immunoblots (FIG. 80B and FIG. 80C, respectively), which both recognize tyrosine phosphorylated proteins and are readouts for the activated EphB2 tyrosine kinase catalytic domain, both show strong tyrosine phosphorylation of the receptor in 3 of 4 vehicle (V) control lanes. […] The results shown here also highlight our finding that when EphB2 is tyrosine phosphorylated and catalytically activate in the intact brain, the protein migrates much slower in the SDS-PAGE gels with apparent migration in distinct bands-220-260 kDa (green arrows in FIGS. 80B and 80C), as opposed to the typical migration of unphosphorylated EphB2 protein at 125 kDa (black arrow in FIG. 80A).

aqueous solubility = format: physicochemical; details: for solubility in water: salt forms
Method: FIG. 45 depicts tests of salt forms of A20 and A20-1 for aqueous solubility. Compounds were provided to the UT Southwestern PK Core facility and tested for soluble in water. While both are quite soluble, A20 salt was especially so and can be made into a […] solution, whereas A20-I salt can be dissolved into >15% solution.
(§3) A study was conducted with A20 salt dissolved solely in PBS and injected at 20 mg/kg to match the previously described study of the free-base. […] The results from the brain, spinal cord, and liver tissues are particularly outstanding and indicate that significant levels of A20 salt remain even after the final collection at 24 hr time point.
To examine the drug-like nature of the disclosed compounds, tests for solubility was conducted.

[1] = pharmacokinetics, single IP injection; format: in vivo, mouse; design: spinal cord AUC0-t / plasma AUC0-t / brain AUC0-t / liver AUC0-t: unit not given here; details: for Cmax / Tmax: mouse; for Cmax: ip, 20 mg/kg; for plasma AUC0-t: 24 hr; for biodistribution: IP, mice
Method: Further studies were conducted as in vivo experiments to evaluate the effect of A20 when injected into the mouse. To formulate the compound for intraperitoneal (IP) injection, A20 was tested for solubility in various buffers, pH conditions, and with cyclodextrins (e.g. Captisol). The formulation was prepared by first dissolving A20 powder in DMSO and followed by mixing with sunflower seed oil (SSO) prior to administration (in 6% DMSO/94% SSO). […] PK profiling experiments were then conducted with A20 to determine its absorption, distribution, metabolism, and excretion (ADME) properties. Mice were given a single IP injection of 20 mg/kg A20 and after 10, 30, 90, 180, 360, 960, 1440 min, three animals per time point were sacrificed and tissue was collected and subjected to mass spectrometry.
as §3

[2] = water, read-out: aqueous solubility

COc1ccccc1N1CCN(Cc2cc(I)c(O)c3ncccc23)CC1 [Compound 71, 7-iodo-5-((4-(2-methoxyphenyl)piperazin-1-yl)methyl)quinolin-8-ol]
association of EphrinB2 with EphB2 in brain (EphB2-EphrinB2): reduced level of association with EphrinB2
activated phosphorylated EphB2 in brain (EphB2; IP 10 mg/kg every 12 hr): generally lower level of activated phosphorylated EphB2 in the brain

Oc1c(Br)cc(CN2CCOCC2)c2cccnc12 [Compound 6, 4-((7-bromo-8-hydroxyquinolin-1-ium-5-yl)methyl)morpholin-4-ium chloride]
solubility (aqueous solubility; water or pbs, aqueous buffer, read-out: solubility in water or PBS): > 50 mg/mL
solubility (aqueous solubility; [2]): > 1000 mg/mL
Cmax ([1]; brain, salt in PBS, IP 20 mg/kg, read-out: brain Cmax): 7.03 µM and 2790 ng/mL
Cmax ([1]; liver, salt in PBS, IP 20 mg/kg, read-out: liver Cmax): 22600 ng/mL and 57 µM
Cmax ([1]; plasma, salt in PBS, IP 20 mg/kg, read-out: plasma Cmax): 2880 ng/mL and 7.27 µM
Cmax ([1]; spinal cord, salt in PBS, IP 20 mg/kg, read-out: spinal cord Cmax): 3310 ng/mL and 8.35 µM
brain AUC0-t ([1]; salt in PBS, IP 20 mg/kg): 136,933
brain time of Cmax ([1]; salt in PBS, IP 20 mg/kg): 10 min
liver AUC0-t ([1]; salt in PBS, IP 20 mg/kg): 1,363,490
plasma time of Cmax ([1]; salt in PBS, IP 20 mg/kg): 10 min
spinal cord AUC0-t ([1]; salt in PBS, IP 20 mg/kg): 86,044
plasma AUC0-t ([1]; salt in PBS, IP 20 mg/kg): 81,039
brain AUC0-t increase over the free-base ([1]; salt vs free-base): > 20 fold
brain Cmax increase over the free-base ([1]; salt vs free-base): > 26 fold
plasma AUC0-t increase over the free-base ([1]; salt vs free-base): > 5.5 fold
plasma Cmax increase over the free-base ([1]; salt vs free-base): > 13 fold
spinal cord AUC0-t increase over the free-base ([1]; salt vs free-base): > 17 fold
spinal cord Cmax increase over the free-base ([1]; salt vs free-base): > 37 fold

Oc1c(Br)cc(CN2CCOCC2)c2cccnc12 [Compound 5, 7-bromo-5-(morpholinomethyl)quinolin-8-ol]
association of EphrinB2 with EphB2 in brain (EphB2-EphrinB2): reduced level of association with EphrinB2
solubility in water (aqueous solubility): extremely soluble in water
activated phosphorylated EphB2 in brain (EphB2; IP 10 mg/kg every 12 hr): generally lower level of activated phosphorylated EphB2 in the brain
activated phosphorylated EphB2 in brain (EphB2; PO or IP 20 mg/kg every 12 hr): lower levels of activated phosphorylated EphB2 in the brain
biodistribution [1]: distributes to plasma, brain, and spinal cord
brain AUC0-t ([1]; free base, IP 20 mg/kg): 6,684
spinal cord AUC0-t ([1]; free base, IP 20 mg/kg): 4,928
plasma AUC0-t ([1]; free base, IP 20 mg/kg): 14,636
Cmax ([1]; brain, free base, IP 20 mg/kg, read-out: brain Cmax): 104 ng/mL and 323 nM
Tmax ([1]; brain, free base, IP 20 mg/kg, read-out: brain time of Cmax (converted)): 10 min
Cmax ([1]; plasma, free base, IP 20 mg/kg, DMSO/SSO, read-out: plasma Cmax): 214 ng/mL
Cmax ([1]; plasma, free base, IP 20 mg/kg, read-out: plasma Cmax): 665 nM
Tmax ([1]; plasma, free base, IP 20 mg/kg, read-out: plasma time of Cmax (converted)): 10 min
Cmax ([1]; spinal cord, free base, IP 20 mg/kg, read-out: spinal cord Cmax): 88 ng/mL and 273 nM

Oc1c(I)cc(CN2CCOCC2)c2cccnc12 [Compound 8, 4-((8-hydroxy-7-iodoquinolin-1-ium-5-yl)methyl)morpholin-4-ium chloride]
solubility (aqueous solubility; [2]): > 150 mg/mL

Oc1ccc(CN2CCN(Cc3ccc(Br)cc3)CC2)c2cccnc12 [Compound 42, 5-((4-(4-bromobenzyl)piperazin-1-yl)methyl)quinolin-8-ol]
biodistribution ([1]; listed as QPB4-Bn): significantly high levels of compound reach intended tissues (i.e., brain, spinal cord, liver, skin) and persist at high concentrations during the 24 hr period

Oc1c(I)cc(CN2CCOCC2)c2cccnc12 [Compound 7, 7-iodo-5-(morpholinomethyl)quinolin-8-ol]
association of EphrinB2 with EphB2 in brain (EphB2-EphrinB2): reduced level of association with EphrinB2
solubility in water (aqueous solubility): extremely soluble in water
activated phosphorylated EphB2 in brain (EphB2; IP 10 mg/kg every 12 hr): generally lower level of activated phosphorylated EphB2 in the brain
activated phosphorylated EphB2 in brain (EphB2; PO or IP 20 mg/kg every 12 hr): lower levels of activated phosphorylated EphB2 in the brain
